Measured values reported in ChEMBL document CHEMBL3885861, “Open TG-GATES”.

Organism: Rattus norvegicus
Test: Open TG-GATES - Regimen: Daily Repeat
Format: toxicity, organism-based, Sprague-Dawley
Set-up: regimen Daily Repeat, gender Male, age 6 weeks
Conditions: in vivo, po, 0 mg/kg, route gavage, dose level Control; for APTT / Bas / Eos / Fbg / Hb / Ht / Lym / MCH / MCHC / MCV / Mono / Neu / PT / Plat / RBC / Ret / WBC: tissue Blood; for KIDNEY_L / KIDNEY_R / KIDNEY_TOTAL: tissue Kidney; for LIVER: tissue Liver; for ALP / ALT / AST / BUN / CRE / Ca / Cl / DBIL / GLC / IP / K / LDH / Na / PL / RALB / TBIL / TC / TG / TP / gamma-GTP: tissue Plasma

For COC(=O)C1=C(C)NC(C)=C(C(=O)OC)C1c1ccccc1[N+](=O)[O-] [NIFEDIPINE], the TERMINAL_BW (72 h, time 3 day) was 227.8 g, the APTT (72 h, time 3 day) was 16.7 s and the Bas (72 h, time 3 day) was 0.4%. It also gave an Eos (72 h, time 3 day) of 1%, a Fbg (72 h, time 3 day) of 313.6 mg/dL and a Hb (72 h, time 3 day) of 13.4 g/dL. For the same compound, the Ht (72 h, time 3 day) was 41.3%, the Lym (72 h, time 3 day) was 80.2% and the MCH (72 h, time 3 day) was 20.8 pg. The MCHC (72 h, time 3 day) was 32.5%, the MCV (72 h, time 3 day) was 64.2 fL and the Mono (72 h, time 3 day) was 3.2%. For the same compound, the Neu (72 h, time 3 day) was 14%, the PT (72 h, time 3 day) was 14.5 s and the Plat (72 h, time 3 day) was 122.9 x10_4/uL. For the same compound, the RBC (72 h, time 3 day) was 643.8 x10_4/ul, the Ret (72 h, time 3 day) was 7.5% and the WBC (72 h, time 3 day) was 94.6 x10_2/uL. It also gave a KIDNEY_L (72 h, time 3 day) of 1 g, a KIDNEY_R (72 h, time 3 day) of 1 g and a KIDNEY_TOTAL (72 h, time 3 day) of 2 g. For the same compound, the LIVER (72 h, time 3 day) was 10.4 g, the ALP (72 h, time 3 day) was 1654.8 IU/L and the ALT (72 h, time 3 day) was 47.6 IU/L. For the same compound, the AST (72 h, time 3 day) was 71.4 IU/L, the BUN (72 h, time 3 day) was 14 mg/dL and the CRE (72 h, time 3 day) was 0.2 mg/dL. The Ca (72 h, time 3 day) was 11.1 mg/dL, the Cl (72 h, time 3 day) was 106 meq/L and the DBIL (72 h, time 3 day) was 0.014 mg/dL. It also gave a GLC (72 h, time 3 day) of 179.2 mg/dL, an IP (72 h, time 3 day) of 7.7 mg/dL and a K (72 h, time 3 day) of 4.2 meq/L. For the same compound, the LDH (72 h, time 3 day) was 85.4 IU/L, the Na (72 h, time 3 day) was 144.8 meq/L and the PL (72 h, time 3 day) was 162 mg/dL. The RALB (72 h, time 3 day) was 2.7 g/dL, the TBIL (72 h, time 3 day) was 0.028 mg/dL and the TC (72 h, time 3 day) was 83.8 mg/dL. The TG (72 h, time 3 day) was 109.2 mg/dL, the TP (72 h, time 3 day) was 5.8 g/dL and the gamma-GTP (72 h, time 3 day) was 1 IU/L. It also gave a TERMINAL_BW ([…], time 7 day) of 262.8 g, a TERMINAL_BW ([…], time 14 day) of 320 g and a TERMINAL_BW ([…], time 28 day) of 416 g. It also gave an APTT ([…], time 7 day) of 16.1 s, a Bas ([…], time 7 day) of 0.4% and an Eos ([…], time 7 day) of 1.4%. It also gave a Fbg ([…], time 7 day) of 286.6 mg/dL, a Hb ([…], time 7 day) of 13.7 g/dL and a Ht ([…], time 7 day) of 42%. For the same compound, the Lym ([…], time 7 day) was 75.8%, the MCH ([…], time 7 day) was 21 pg and the MCHC ([…], time 7 day) was 32.7%. It also gave an MCV ([…], time 7 day) of 64.1 fL, a Mono ([…], time 7 day) of 3% and a Neu ([…], time 7 day) of 18.2%. For the same compound, the PT ([…], time 7 day) was 14.2 s, the Plat ([…], time 7 day) was 133.6 x10_4/uL and the RBC ([…], time 7 day) was 656.4 x10_4/ul. It also gave a Ret ([…], time 7 day) of 5.7%, a WBC ([…], time 7 day) of 100.3 x10_2/uL and an APTT ([…], time 14 day) of 18.1 s. The Bas ([…], time 14 day) was 0%, the Eos ([…], time 14 day) was 1% and the Fbg ([…], time 14 day) was 320.8 mg/dL. For the same compound, the Hb ([…], time 14 day) was 14.8 g/dL, the Ht ([…], time 14 day) was 44.1% and the Lym ([…], time 14 day) was 79.2%. For the same compound, the MCH ([…], time 14 day) was 20.6 pg, the MCHC ([…], time 14 day) was 33.5% and the MCV ([…], time 14 day) was 61.3 fL. For the same compound, the Mono ([…], time 14 day) was 3%, the Neu ([…], time 14 day) was 15.6% and the PT ([…], time 14 day) was 14.2 s. The Plat ([…], time 14 day) was 117.8 x10_4/uL, the RBC ([…], time 14 day) was 720.2 x10_4/ul and the Ret ([…], time 14 day) was 4.2%. For the same compound, the WBC ([…], time 14 day) was 101 x10_2/uL, the APTT ([…], time 28 day) was 16.7 s and the Bas ([…], time 28 day) was 0.4%. For the same compound, the Eos ([…], time 28 day) was 1%, the Fbg ([…], time 28 day) was 313.6 mg/dL and the Hb ([…], time 28 day) was 13.4 g/dL. The Ht ([…], time 28 day) was 41.3%, the Lym ([…], time 28 day) was 80.2% and the MCH ([…], time 28 day) was 20.8 pg. It also gave an MCHC ([…], time 28 day) of 32.5%, an MCV ([…], time 28 day) of 64.2 fL and a Mono ([…], time 28 day) of 3.2%. For the same compound, the Neu ([…], time 28 day) was 14%, the PT ([…], time 28 day) was 14.5 s and the Plat ([…], time 28 day) was 122.9 x10_4/uL. It also gave an RBC ([…], time 28 day) of 643.8 x10_4/ul, a Ret ([…], time 28 day) of 7.5% and a WBC ([…], time 28 day) of 94.6 x10_2/uL. For the same compound, the KIDNEY_L ([…], time 7 day) was 1 g, the KIDNEY_R ([…], time 7 day) was 1 g and the KIDNEY_TOTAL ([…], time 7 day) was 2.1 g. For the same compound, the KIDNEY_L ([…], time 14 day) was 1.2 g, the KIDNEY_R ([…], time 14 day) was 1.2 g and the KIDNEY_TOTAL ([…], time 14 day) was 2.5 g. For the same compound, the KIDNEY_L ([…], time 28 day) was 1.4 g, the KIDNEY_R ([…], time 28 day) was 1.4 g and the KIDNEY_TOTAL ([…], time 28 day) was 2.7 g. It also gave an LIVER ([…], time 7 day) of 12.1 g, an LIVER ([…], time 14 day) of 13.8 g and an LIVER ([…], time 28 day) of 17.4 g. The ALP ([…], time 7 day) was 1580.4 IU/L, the ALT ([…], time 7 day) was 42.6 IU/L and the AST ([…], time 7 day) was 68.6 IU/L. For the same compound, the BUN ([…], time 7 day) was 15.4 mg/dL, the CRE ([…], time 7 day) was 0.2 mg/dL and the Ca ([…], time 7 day) was 11 mg/dL. It also gave a Cl ([…], time 7 day) of 106.4 meq/L, a DBIL ([…], time 7 day) of 0.014 mg/dL and a GLC ([…], time 7 day) of 183.6 mg/dL. It also gave an IP ([…], time 7 day) of 7.4 mg/dL, a K ([…], time 7 day) of 4 meq/L and an LDH ([…], time 7 day) of 98.2 IU/L. It also gave a Na ([…], time 7 day) of 145.2 meq/L, a PL ([…], time 7 day) of 159.2 mg/dL and an RALB ([…], time 7 day) of 2.7 g/dL. The TBIL ([…], time 7 day) was 0.026 mg/dL, the TC ([…], time 7 day) was 82.4 mg/dL and the TG ([…], time 7 day) was 111.8 mg/dL. It also gave a TP ([…], time 7 day) of 5.9 g/dL, a gamma-GTP ([…], time 7 day) of 1 IU/L and an ALP ([…], time 14 day) of 1854.8 IU/L. For the same compound, the ALT ([…], time 14 day) was 41.8 IU/L, the AST ([…], time 14 day) was 65 IU/L and the BUN ([…], time 14 day) was 16 mg/dL. For the same compound, the CRE ([…], time 14 day) was 0.2 mg/dL, the Cl ([…], time 14 day) was 105.6 meq/L and the DBIL ([…], time 14 day) was 0.012 mg/dL. For the same compound, the GLC ([…], time 14 day) was 184 mg/dL, the IP ([…], time 14 day) was 7.3 mg/dL and the K ([…], time 14 day) was 4 meq/L. The LDH ([…], time 14 day) was 57.8 IU/L, the Na ([…], time 14 day) was 144.2 meq/L and the PL ([…], time 14 day) was 158.8 mg/dL. It also gave an RALB ([…], time 14 day) of 2.8 g/dL, a TBIL ([…], time 14 day) of 0.024 mg/dL and a TC ([…], time 14 day) of 75.4 mg/dL. It also gave a TG ([…], time 14 day) of 150.8 mg/dL, a TP ([…], time 14 day) of 6 g/dL and a gamma-GTP ([…], time 14 day) of 1 IU/L. For the same compound, the ALP ([…], time 28 day) was 1068.6 IU/L, the ALT ([…], time 28 day) was 36.2 IU/L and the AST ([…], time 28 day) was 63 IU/L. For the same compound, the BUN ([…], time 28 day) was 17.4 mg/dL, the CRE ([…], time 28 day) was 0.3 mg/dL and the Ca ([…], time 28 day) was 10.7 mg/dL. The Cl ([…], time 28 day) was 104.4 meq/L, the DBIL ([…], time 28 day) was 0.01 mg/dL and the GLC ([…], time 28 day) was 192.8 mg/dL. The IP ([…], time 28 day) was 6.1 mg/dL, the K ([…], time 28 day) was 3.9 meq/L and the LDH ([…], time 28 day) was 66 IU/L. The Na ([…], time 28 day) was 143.8 meq/L, the PL ([…], time 28 day) was 161.6 mg/dL and the RALB ([…], time 28 day) was 2.8 g/dL. It also gave a TBIL ([…], time 28 day) of 0.026 mg/dL, a TC ([…], time 28 day) of 75 mg/dL and a TG ([…], time 28 day) of 175.2 mg/dL. The TP ([…], time 28 day) was 6.3 g/dL.
